The source of these data is patent US6759385B1, “Methods to treat undesirable immune responses” (Regents of the University of Minnesota, priority 1997, dated 2004).

One test concerns anti-FVIII CD4+ cells. As to the kind of experiment: CD4+ epitope repertoire to FVIII in hemophilia A mice. The test is classed as cell-based, mouse. The following applies: mice immunized s.c. with FVIII in Freund adjuvant. The source says:
CD4^+ epitope repertoire to FVIII in hemophilia A mice. Mice were immunized with 1 microgram of purified recombinant human FVIII emulsified in Freund adjuvant, and injected subcutaneously three times. The first injection utilized complete Freund adjuvant. This procedure, as opposed to i.v. injections of soluble FVIII, was selected to ensure a strong immunization to FVIII and to reveal the broadest epitope repertoire recognized by anti-FVIII CD4^+ cells.
FIG. 48 summarizes the results obtained regarding the anti-FVIII CD4^+ repertoire in the mice thus immunized. The individual peptides are indicated with codes that include two numbers, corresponding to the position of the first and last peptide residue on the sequence of the FVIII precursor. The responses to the individual peptides are organized in panels corresponding to the different domains, as indicated.

The subject of test [1] is SCID mice engrafted with BL. Briefly: Verification of myasthenic weakness with cholinesterase inhibitor in SCID mice engrafted with BL from MG patients. The class given is in vivo, mouse. Here is the method:
Assay of myasthenic symptoms. The myasthenic symptoms were quantified using a forced exercise test sensitized by administration of a minute amount of pancuronium bromide (0.03 mg/kg intraperitoneum) just before the test. The small amount of pancuronium inactivates a fraction of the mouse muscle AChR. […] The mice hang from a grid suspended above a soft padding, and the time it took the mouse to fall three times (“holding time”) was measured. The test is parametric and gives a quantitative assessment of the mouse weakness. The mice were tested without knowledge of the type of cells engrafted.
The myasthenic nature of the weakness was verified by injecting intraperitoneum edrophonium chloride (Reversol; Organon Inc., West Orange, N.J.). […] The concentrations of human IgG and IgM in the mouse sera was measured by ELISA. Microtiter plates (Nunc, Roskilde, Denmark) were coated with goat anti-human IgG or IgM Ab (pierce, Rockford, Ill.) in 20 mM sodium carbonate buffer, pH 9.5 (coating buffer), and blocked any uncoated sites with 3% bovine serum albumin (BSA) in coating buffer. Mouse sera diluted serially in PBS was added, and incubated at 4° C. overnight. After four washings with PBS containing 1% Triton X-100, peroxidase conjugated anti-human IgG and IgM Ab (Sigma, St. Louis, Mo.) was added. […] The optical density of the plates was read at 490 nm in an ELISA reader. […]

In the next test the test system is mice with EMG weakness. As to the kind of experiment: Verification of myasthenic weakness with cholinesterase inhibitor in TAChR-immunized mice. The following applies: i.p. The test is classed as in vivo, mouse. Here is the method:
To verify the myasthenic nature of the weakness observed, mice with significant weakness were injected i.p. with the cholinesterase inhibitor edrophonium chloride (Reversol, Organon Inc., West Orange, N.J.). […] The test was performed blindly, i.e., without knowledge of the treatment that the mouse had received.
Evaluation of Clinical Symptoms of EMG. The symptoms of EMG were quantified using a forced exercise by the inverted hang technique, sensitized by a minute amount of pancuronium bromide (0.03 mg/kg intraperitoneum), given just before the test (Karachunski et al., 1995). The mice hang from a grid, and the time it took for the mouse to release its hold and fall three times is measured (“holding time”). […] This test is parametric, and gives a quantitative assessment of the severity of the mouse weakness. […]
Evaluation of the symptoms of EMG The EMG symptoms were quantified using a forced exercise test sensitized by i.p. injection of a minute amount of pancuronium bromide (0.03 mg/kg) just before the test (Karachunski et al., 1995). The mouse hangs from a grid suspended above a soft padding, and the time it takes the mouse to fall three times (‘holding time’) was measured. The test is parametric, and gives a quantitative assessment of the mouse weakness. […]

Test [2] has as its system CD8+ depleted spleen cells. Briefly: Lymphocyte proliferation assay, CD8+ depleted spleen cells of IL-4 KO mice. The test is classed as cell-based, mouse. As to conditions: for recognition of individual peptide by cells from sham-treated mice: IL-4 KO mice immunized with TAChR, 10 μg/ml peptide. Here is the method:
Lymphocyte Proliferation Assay. Two weeks after the last immunization, spleen cells (Bellone et al., 1991) were obtained from three identically treated IL-4 KO mice. The cells were pooled and depleted them in CD8^+ cells using paramagnetic beads and rat anti-mouse CD8^+ antibody (Pharmingen, San Diego, Calif.). The cells were suspended in RPMI-1640 (Gibco, Grand Island, N.Y.) supplemented with 10% heat inactivated fetal calf serum (Gibco), 50 μM 2-mercaptoethanol, 1 mM L-glutamine, 10 mM Hepes, 1 mM sodium pyruvate, 100 U/ml penicillin and 100 μg/ml streptomycin (×10^6 cells/ml). The cells were seeded in triplicate in 96 flat-bottom well plates (200 μl/well). One of the following antigens or stimulants was added: 10 μg/ml phytohemoagglutinine (PHA) (Sigma); 10 μg/ml TAChR; the pools of overlapping peptides spanning the α, β, γ, or δ subunit sequences (5 μg/ml) of each peptide); and 10 μg/ml of the individual a subunit peptides. Controls were triplicate wells cultivated without any antigen, or with or a 20-residue control peptide synthesized by the same method, unrelated to the TAChR sequence (10 μg). After four days the cells were labeled for 16 hours with ^3H-thymidine (1 μCi per well, specific activity 6.7 Ci/mmol, Dupont, Boston, Mass.), and harvested (Titertek, Skatron, Sterling, Va.). The ^3H-thymidine incorporation was measured by liquid scintillation.

The subject of a further test is EMG. The following applies: s.c. or i.p. 300 μg in IFA, 7 days before or 7-18 days after first TAChR immunization; cited from earlier work.
Test [3] has as its system anti-TAChR and anti-peptide IgG subclasses. As to the kind of experiment: ELISA of anti-TAChR and anti-peptide IgG subclasses (Example III). The class given is in vivo, mouse. The following applies: IL-4 KO mice, nasal α epitope pool. Here is the method: Assay of Anti-TAChR and Anti-peptide IgG Subclasses. The relative concentration of IgG subclasses of anti-TAChR and anti-peptide antibodies in the sera of peptide- and sham-treated mice was measured by ELISA after immunization with TAChR. Pooled sera from three-four mice that had received identical treatments was used. The sera used in this assay was obtained at the end of the observation period (10 weeks after beginning of the anti-TAChR immunization).
Ninety-six well plates (Nunc, Karstrup, Denmark) were washed extensively and incubated as follows: 4 hours with a 10 μg/ml solution of TAChR or of individual peptides Tα150-169, Tα181-200 and Tα360-378 in 0.1 M Na phosphate buffer, pH 9.5 (two wells for each antigen), 1 hr with PBS plus 3% bovine serum albumin (BSA), 2 hours with mouse serum (serial dilutions from 1:100 to 1:40,000 in PBS plus 3% BSA), 1 hr with a dilution 1:1000 in PBS plus 3% BSA of goat antibody specific for the total IgG, or IgGl, or IgG2a, or IgG2b or IgG3 (Mouse Monoclonal Isotyping Kit, Sigma, St. Louis, Mo.), and 30 minutes with a 1:3000 dilution of peroxidase-conjugate rabbit anti-goat IgG (Sigma) in PBS plus 3% BSA. The plates were washed, and developed them for 20-60 minutes with ABTS peroxidase substrate system (Kirkegaard & Perry Laboratories Inc., Gaithersburg, Md.). […] The OD was read at 405 nanometers. […]
A general note: An ELISA detects its analyte on a solid surface through an enzyme-linked reagent.

A further test concerns spleen CD4+ T-cells. As to the kind of experiment: Lymphocyte proliferation assay, spleen CD4+ T-cells (Example IV). The test is classed as cell-based, mouse. As to conditions: TAChR-immunized B6 mice, 5 or 10 μg/ml. Here is the method:
Lymphocyte proliferation assay. Five to seven days after the last TAChR immunization, CD4^+ T-cells (Bellone et al., 1991a) were purified from the pooled spleens of three to four mice that had received identical treatments. Irradiated (3000 rad) spleen cells from non-immunized mice were diluted as needed in RPMI-1640 (Gibco, Grand Island, N.Y.) supplemented with 10% heat inactivated fetal calf serum (Gibco), 50 μM 2-mercapto-ethanol, 1 mM L-glutamine, 10 mM HEPES, 1 mM sodium pyruvate, 100 U/ml penicillin and 100 μg/ml streptomycin (culture medium) and used as APC. The spleen CD4^+ T-cells (1×10^6/ml in culture medium, 100×1/well) were seeded in triplicate in 96 flat-bottom well plates containing 100×1 of 5×10^6/ml APC. One of the following Ag was added: 10 μg/ml PHA (Sigma); 5 or 10 μg/ml TAChR; 5 or 10 μg/ml of the individual epitope peptides. The concentrations of TAChR and epitope peptides are in the saturating range of the dose dependence curve (Bellone et al., 1991a), and yielded consistent results. Controls were triplicate wells containing CD4^+ cells and APC without any Ag, or with the control peptide (10 μg/ml). After 4 days the cells were labeled for 16 hours with ^3H-thymidine (1 μCi per well, specific activity 6.7 Ci/mmol, Dupont, Boston, Mass.) and harvested (Titertek, Skatron, Sterling, Va.). The ^3H-thymidine incorporation was measured by liquid scintillation, and represented the results as stimulation indexes (S.I.: the ratio between the cpm obtained in the presence of a given stimulus, and the average cpm obtained for non-stimulated control cultures).

Entries after “also recorded” stand apart in the source; their conditions may differ.

For “1-20: synthetic peptide, residues 1-20 of the FVIII precursor (MQIELSTCFFLCLLRFCFSA; UniProt P00451 1-20, looked up, fragment)”, in the test on anti-FVIII CD4+ cells, the “recognition of individual FVIII peptides by CD4+ cells” value is recorded as “recognized especially strongly”.

With “1671-1690: synthetic peptide, residues 1671-1690 of the FVIII precursor (RTTLQSDQEEIDYDDTISVE; UniProt P00451 1671-1690, looked up, fragment)”, the “recognition of individual FVIII peptides by CD4+ cells” value with anti-FVIII CD4+ cells is listed as “recognized especially strongly”.

Consider `CC[N+](C)(C)c1cccc(O)c1` [Reversol, edrophonium chloride], for which the “effect on muscle strength of mice with normal holding time” value in test [1] (SCID mice) is on record as “did not increase the muscle strength”. Besides, the “effect on strength of affected mice” value in test [1] (intraperitoneum, SCID mice engrafted with BL from MG patients) is listed as “immediately improved the strength; also recorded: improvement of the muscle strength”. For the same compound, the “effect on strength of mice with weakness” value with mice with EMG weakness was “immediately improved the strength; also recorded: immediately increased the strength”.

Consider “peptide Tα146-162: overlapping synthetic TAChR α subunit peptide that overlaps Tα150-169 (LGIWTYDGTKVSISPES; UniProt P02710 170-186, looked up, fragment)”, for which the “recognition of individual peptide by cells from peptide-treated mice” value in test [2] (IL-4 KO mice) is listed as “strongly”. Moreover, the “recognition of individual peptide by cells from sham-treated mice” value in test [2] is recorded as “recognized strongly”. For the same compound, the “effect on EMG” value in the test with EMG is “prevented EMG”.

With “peptide Tα360-378: synthetic peptide corresponding to residues 360-378 of the TAChR α subunit (VIFQTPLIKNPDVKSAIEG; UniProt P02710 384-402, looked up, fragment)”, the “anti-peptide IgG2a” value in test [3] is on record as “moderate synthesis of IgG2a”. In test [2], the “recognition of individual peptide by cells from sham-treated mice” value is on record as “recognized strongly”. In the test on spleen CD4+ T-cells, the “response of CD4+ cells from sham-tolerized mice to the peptide” value is recorded as “three of the five”.
